These results are taken from US10420341B2, “Herbicidal phenylpyrimidines” (BASF SE, priority 2015, dated 2019).

Assay [1] concerns AMARE. The assay can be described thus: greenhouse pre-emergence herbicidal test. The format is in vivo, Amaranthus retroflexus. To be noted: pre-emergence method, scale from 0 to 100. An excerpt:
(§1) The seeds of the test plants were sown separately for each species. For the pre-emergence treatment, the active ingredients, which had been suspended or emulsified in water, were applied directly after sowing by means of finely distributing nozzles. The containers were irrigated gently to promote germination and growth and subsequently covered with transparent plastic hoods until the plants had rooted. This cover caused uniform germination of the test plants, unless this had been impaired by the active ingredients. Depending on the species, the plants were kept at 10-25° C. or 20-35° C., respectively. The test period extended over 2 to 4 weeks. During this time, the plants were tended, and their response to the individual treatments was evaluated. Evaluation was carried out using a scale from 0 to 100. 100 means no emergence of the plants, or complete destruction of at least the aerial moieties, and 0 means no damage, or normal course of growth. […] The plants used in the greenhouse experiments were of the following species: [table]

Assay [2] concerns ECHCG. The assay is described as follows: greenhouse post-emergence herbicidal test. The class given is in vivo, Echinocloa crus-galli. To be noted: post-emergence method, application rate 500 g/ha, scale from 0 to 100. In a few lines:
(§2)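 Greenhouse plants, grown to 3–15 cm, were treated post-emergence with emulsified or suspended compound and assessed over 2–4 weeks on a 0–100 damage scale.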

The test system of a further assay is LOLMU. The assay can be described thus: greenhouse post-emergence herbicidal test. The class given is in vivo, Lolium multiflorum. To be noted: post-emergence method, application rate 500 g/ha, scale from 0 to 100. An excerpt:
(§3) The seeds of the test plants were sown separately for each species. For the post-emergence treatment, the test plants were first grown to a height of 3 to 15 cm, depending on the plant habit, and only then treated with the active ingredients which had been suspended or emulsified in water. For this purpose, the test plants were either sown directly and grown in the same containers, or they were first grown separately as seedlings and transplanted into the test containers a few days prior to treatment. Depending on the species, the plants were kept at 10-25° C. or 20-35° C., respectively. The test period extended over 2 to 4 weeks. During this time, the plants were tended, and their response to the individual treatments was evaluated. Evaluation was carried out using a scale from 0 to 100. 100 means no emergence of the plants, or complete destruction of at least the aerial moieties, and 0 means no damage, or normal course of growth. […] The plants used in the greenhouse experiments were of the following species: [table]

In assay [3] the test system is APESV. The assay can be described thus: greenhouse pre-emergence herbicidal test. The format is in vivo, Apera spica-venti. To be noted: pre-emergence method, application rate 500 g/ha, scale from 0 to 100. In a few lines:
(§4)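 Species-dependent temperatures of 10-25° C. or 20-35° C. were maintained for a 2 to 4 week test after pre-emergence nozzle application of compounds dispersed in water. Efficacy was scored 0-100, with 100 denoting no emergence or total aerial destruction.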

Assay [4] relates to POLCO. The assay can be described thus: greenhouse post-emergence herbicidal test. The class given is in vivo, Polygonum convolvulus. To be noted: post-emergence method, application rate 500 g/ha, scale from 0 to 100. In a few lines:
as §2

Assay [5] has as its system AVEFA. The assay can be described thus: greenhouse pre-emergence herbicidal test. The class given is in vivo, Avena fatua. To be noted: pre-emergence method, application rate 500 g/ha, scale from 0 to 100.
Description: as §1

Assay [6] has as its system AVEFA. The assay can be described thus: greenhouse post-emergence herbicidal test. The class given is in vivo, Avena fatua. To be noted: post-emergence method, application rate 500 g/ha, scale from 0 to 100. In a few lines:
as §2

The subject of assay [7] is ECHCG. The assay is described as follows: greenhouse pre-emergence herbicidal test. The class given is in vivo, Echinocloa crus-galli. To be noted: pre-emergence method, application rate 500 g/ha, scale from 0 to 100. The method, boiled down: as §4
The subject of assay [8] is APESV. The assay is described as follows: greenhouse post-emergence herbicidal test. To be noted: post-emergence method, application rate 500 g/ha, scale from 0 to 100. The format is in vivo, Apera spica-venti.
Description: as §3

A further assay deals with ALOMY. The assay can be described thus: greenhouse post-emergence herbicidal test. The settings on record: post-emergence method, application rate 500 g/ha, scale from 0 to 100. The format is in vivo, Alopercurus myosuroides. In a few lines:
as §2

Assay [9] concerns POLCO. The assay is described as follows: greenhouse pre-emergence herbicidal test. The class given is in vivo, Polygonum convolvulus. The settings on record: pre-emergence method, application rate 500 g/ha, scale from 0 to 100.
Description: as §1

For the next assay, the system named is ABUTH. The assay is described as follows: greenhouse post-emergence herbicidal test. The class given is in vivo, Abutilon theophrasti. To be noted: post-emergence method, application rate 1000 g/ha, scale from 0 to 100. In a few lines:
as §2

The test system of assay [10] is AMARE. The assay is described as follows: greenhouse post-emergence herbicidal test. The format is in vivo, Amaranthus retroflexus. To be noted: post-emergence method, application rate 1000 g/ha, scale from 0 to 100. In a few lines: as §2
Assay [11] deals with SETVI. The assay is described as follows: greenhouse pre-emergence herbicidal test. The class given is in vivo, Setaria viridis. To be noted: pre-emergence method, application rate 1000 g/ha, scale from 0 to 100.
Description: as §1

In assay [12] the test system is SETVI. The assay can be described thus: greenhouse post-emergence herbicidal test. The class given is in vivo, Setaria viridis. To be noted: post-emergence method, application rate 500 g/ha, scale from 0 to 100.
Description: as §3

Each structure is given as a SMILES string.

As to `CN(C)S(=O)(=O)NC(=O)c1nc(C2CC2)ncc1-c1ccccc1Cl` [example 287], the “herbicidal activity against AMARE” value in the assay on AMARE [1] (application rate 500 g/ha) is “very good (a very good herbicidal activity is given at values of at least 85)”. Moreover, the “herbicidal activity against ECHCG” value with ECHCG [2] is recorded as “very good (a very good herbicidal activity is given at values of at least 85)”. In addition, in the assay with LOLMU, the “herbicidal activity against LOLMU” value was “very good (a very good herbicidal activity is given at values of at least 85)”. In the assay on APESV [3], the “herbicidal activity against APESV” value is “very good (a very good herbicidal activity is given at values of at least 85)”. The “herbicidal activity against POLCO” value in the assay with POLCO [4] is recorded as “very good (a very good herbicidal activity is given at values of at least 85)”.

Consider `C#CCOC(=O)c1nc(C2CC2)ncc1-c1ccccc1Cl` [example 256], for which the “herbicidal activity against AVEFA” value in the assay with AVEFA [5] and in the assay with AVEFA [6] was “very good (a very good herbicidal activity is given at values of at least 85)” in each case. In addition, the “herbicidal activity against ECHCG” value with ECHCG [2] and in the assay on ECHCG [7] was “very good (a very good herbicidal activity is given at values of at least 85)” each time. The “herbicidal activity against APESV” value with APESV [3] and with APESV [8] was “very good (a very good herbicidal activity is given at values of at least 85)” in each case.

Take `O=C(OCC(F)F)c1nc(C2CC2)ncc1-c1ccccc1Cl` [example 257]: the “herbicidal activity against ALOMY” value in the assay on ALOMY is “very good (a very good herbicidal activity is given at values of at least 85)”. Moreover, in the assay with AVEFA [6], the “herbicidal activity against AVEFA” value is “very good (a very good herbicidal activity is given at values of at least 85)”. Besides, the “herbicidal activity against ECHCG” value is “good (A good herbicidal activity is given at values of at least 70)” with ECHCG [2] and “very good (a very good herbicidal activity is given at values of at least 85)” in the assay on ECHCG [7]. Also, in the assay on APESV [3], the “herbicidal activity against APESV” value is “very good (a very good herbicidal activity is given at values of at least 85)”. Further, in the assay on POLCO [9], the “herbicidal activity against POLCO” value is given as “very good (a very good herbicidal activity is given at values of at least 85)”.

For `COC(=O)c1nc(C2CCCO2)ncc1-c1ccccc1C` (stereo not shown) [example 276], the “herbicidal activity against ABUTH” value with ABUTH is given as “very good (a very good herbicidal activity is given at values of at least 85)”. The “herbicidal activity against AMARE” value in the assay with AMARE [10] and in the assay on AMARE [1] (application rate 1000 g/ha) was “very good (a very good herbicidal activity is given at values of at least 85)” in each case.

Consider `COc1ccccc1-c1cnc(OC(C)C)nc1C(=O)O` [example 74], for which, in the assay with SETVI [11], the “herbicidal activity against SETVI” value is recorded as “good (A good herbicidal activity is given at values of at least 70)”.

Consider `NC(=O)c1nc(C2CC2)ncc1-c1ccccc1Cl` [example 288], for which the “herbicidal activity against AMARE” value with AMARE [1] (application rate 500 g/ha) is “very good (a very good herbicidal activity is given at values of at least 85)”. Also, in the assay with APESV [3], the “herbicidal activity against APESV” value is recorded as “very good (a very good herbicidal activity is given at values of at least 85)”. Further, the “herbicidal activity against POLCO” value with POLCO [4] is on record as “very good (a very good herbicidal activity is given at values of at least 85)”. In addition, in the assay with SETVI [12], the “herbicidal activity against SETVI” value is given as “very good (a very good herbicidal activity is given at values of at least 85)”.
